Key:
[1] = logP by HPLC on reversed phase columns (EEC directive 79/831 Annex V.A8); conditions: gradient 10% to 95% acetonitrile
Pyricularia oryzae = format: in vivo; conditions: rice, protective, 250 ppm of active ingredient, evaluated 5 days after inoculation
Pyrenophora teres = assay: In vivo test on Pyrenophora teres (barley net blotch); conditions: barley plants, sprayed 24 hours before contamination, dose 500 ppm, grading 12 days after contamination
Procedure: Barley plants (Express variety), sown on a 50/50 peat soil-pozzolana substrate in starter cups and grown at 12° C., are treated at the 1-leaf stage (10 cm tall) by spraying with the active ingredient prepared as described above. Plants, used as controls, are treated with an aqueous solution not containing the active material. After 24 hours, the plants are contaminated by spraying them with an aqueous suspension of Pyrenophora teres spores (12,000 spores per ml). The spores are collected from a 12-day-old culture. […] Grading is carried out 12 days after the contamination, in comparison with the control plants. Under these conditions, good (at least 70%) is observed at a dose of 500 ppm with the following compound: A14

Botrytis cinerea = assay: In vivo test on Botrytis cinerea (grey mould); conditions: gherkin plants, sprayed 24 hours before contamination, dose 500 ppm, grading 5/7 days after contamination
Procedure: Plants, used as controls, are treated with an aqueous solution not containing the active material. After 24 hours, the plants are contaminated by depositing drops of an aqueous suspension of Botrytis cinerea spores (150,000 spores per ml) on upper surface of the leaves. The spores are collected from a 15-day-old culture and are suspended in a nutrient solution composed of: • 20 g/L of gelatine; • 50 g/L of D-fructose; • 2 g/L of NH4NO3; • 1 g/L of KH2PO4. The contaminated cucumber plants are settled for 5/7 days in a climatic room at 15-11° C. […] Grading is carried out 5/7 days after the contamination, in comparison with the control plants. Under these conditions, good (at least 70%) or total protection is observed at a dose of 500 ppm with the following compound: A14

Cochliobolus miyabeanus = assay: Cochliobolus test (rice) / protective; format: in vivo; conditions: 250 ppm of active ingredient, evaluated 4 days after inoculation
Rhizoctonia solani = assay: Rhizoctonia test (rice) / protective; format: in vivo; conditions: 250 ppm of active ingredient, evaluated 4 days after inoculation
Procedure: To produce a suitable preparation of active compound, 1 part by weight of active compound is mixed with the stated amounts of solvent and emulsifier, and the concentrate is diluted with water to the desired concentration. To test for protective activity, young plants are sprayed with the preparation of active compound at the stated rate of application. One day after spraying, the plants are inoculated with a hypha of the causal agent of rice sheath blight (Rhizoctonia solani). The plants are then placed in an incubator at approximately 25° C. and a relative atmospheric humidity of approximately 100%.

[2] = unmarked values: LC-MS at pH 2.7, 0.1% formic acid in water / acetonitrile
[3] = [c] LC-MS at pH 7.8, 0.001 molar ammonium hydrogen carbonate in water

Row | Compound | Lop p [1, 2] | Lop p [1, 3] | further results
1 | CN(c1cc(-c2ncnc(Nc3ccsc3)n2)ccn1)C1CCCC1 [Compound A34] | 1.93 |  | 
2 | COc1ccc(Nc2ncnc(-c3ccnc(NCCC(C)C)c3)n2)cn1 [Compound A11] |  | 3.27[c] | 
3 | COc1ccc(Nc2ncnc(-c3ccnc(NCC4CCCO4)c3)n2)cn1 (centres unmarked) [Compound A13] |  | 2.17[c] | 
4 | Nc1cc(-c2ncnc(Nc3ccsc3)n2)ccn1 [Compound A20] | 0.98 |  | 
5 | C=CCN(C)c1cc(-c2ncnc(Nc3ccsc3)n2)ccn1 [Compound A27] | 1.48 |  | 
6 | CN(C)c1cc(-c2ncnc(Nc3ccsc3)n2)ccn1 [Compound A35] | 1.22 |  | 
7 | COc1ccc(Nc2ncnc(-c3ccnc(NCCCSC)c3)n2)cn1 [Compound A7] |  | 2.62[c] | 
8 | CCC(O)CNc1cc(-c2ncnc(Nc3ccc(OC)nc3)n2)ccn1 (centres unmarked) [Compound A9] |  | 1.97[c] | 
9 | CC(C)CCN(C)c1cc(-c2ncnc(Nc3ccsc3)n2)ccn1 [Compound A32] | 2.18 |  | 
10 | COc1ccc(Nc2ncnc(-c3ccnc(NCC(C)O)c3)n2)cn1 (centres unmarked) [Compound A8] |  | 1.7[c] | 
11 | COCC(C)Nc1cc(-c2ncnc(Nc3ccsc3)n2)ccn1 (centres unmarked) [Compound A15] | 1.4 |  | 
12 | CCC(C(C)OC)N(C)c1cc(-c2ncnc(Nc3ccsc3)n2)ccn1 (centres unmarked) [Compound A22] | 2.14 |  | 
13 | CCSCCNc1cc(-c2ncnc(Nc3ccc(OC)nc3)n2)ccn1 [Compound A4] |  | 2.78[c] | 
14 | COc1ccc(Nc2ncnc(-c3ccnc(NC(C)CN(C)C)c3)n2)cn1 (centres unmarked) [Compound A5] |  | 1.45[c] | 
15 | CC(C)C(C)Nc1cc(-c2ncnc(Nc3ccsc3)n2)ccn1 (centres unmarked) [Compound A17] | 1.79 |  | 
16 | COCCNc1cc(-c2ncnc(Nc3ccsc3)n2)ccn1 [Compound A18] | 1.28 |  | 
17 | COCC(C)Nc1cc(-c2ncnc(Nc3ccc(OC)nc3)n2)ccn1 (centres unmarked) [Compound A1] | 1.3 | 2.25[c]; | 
18 | CC(C)CN(C)c1cc(-c2ncnc(Nc3ccsc3)n2)ccn1 [Compound A16] | 1.86 |  | 

Row | Compound | Lop p [1, 2] | Lop p [1, 3] | further results
19 | CCCN(C)c1cc(-c2ncnc(Nc3ccsc3)n2)ccn1 [Compound A28] | 1.63 |  | 
20 | COc1ccc(Nc2ncnc(-c3ccnc(NCCOC(C)C)c3)n2)cn1 [Compound A10] |  | 2.53[c] | 
21 | CN(CC1CC1)c1cc(-c2ncnc(Nc3ccsc3)n2)ccn1 [Compound A21] | 1.75 |  | 
22 | CCCC(C)Nc1cc(-c2ncnc(Nc3ccsc3)n2)ccn1 (centres unmarked) [Compound A31] | 1.84 |  | 
23 | COc1ccc(Nc2ncnc(-c3ccnc(NCC(C)C)c3)n2)cn1 [Compound A2, N-(6-methoxypyridin-3-yl)-4-{2-[(2-methylpropyl)amino]pyridin-4-yl}-1,3,5-triazin-2-amine] |  | 2.52[c] | 
24 | CN(CC1CCCO1)c1cc(-c2ncnc(Nc3ccsc3)n2)ccn1 (centres unmarked) [Compound A24] | 1.59 |  | 
25 | CN(CC(F)(F)F)c1cc(-c2ncnc(Nc3ccsc3)n2)ccn1 [Compound A23] | 3.42 |  | 
26 | COC1CCCN(c2cc(-c3ncnc(Nc4ccsc4)n3)ccn2)C1 (centres unmarked) [Compound A25] | 1.74 |  | 
27 | CCC(COC)Nc1cc(-c2ncnc(Nc3ccsc3)n2)ccn1 (centres unmarked) [Compound A30] | 1.6 |  | 
28 | CC(C)=CCN(C)c1cc(-c2ncnc(Nc3ccsc3)n2)ccn1 [Compound A33] | 2.14 |  | 
29 | CCC(C)Nc1cc(-c2ncnc(Nc3ccc(OC)nc3)n2)ccn1 (centres unmarked) [Compound A14] |  | 2.47[c] | efficacy (Pyricularia oryzae): ≥ 80%; protection (good, at least 70%) (Pyrenophora teres): at least 70%; protection (good, at least 70%, or total) (Botrytis cinerea): at least 70%; efficacy (Cochliobolus miyabeanus): ≥ 80%; efficacy (Rhizoctonia solani): ≥ 80%
30 | CCN(CC)c1cc(-c2ncnc(Nc3ccsc3)n2)ccn1 [Compound A29] | 1.57 |  | 
31 | COc1ccc(Nc2ncnc(-c3ccnc(NCCSC)c3)n2)cn1 [Compound A12] |  | 2.44[c] | 
32 | CC(C)(C)OC(=O)Nc1cc(-c2ncnc(Nc3ccsc3)n2)ccn1 [Compound A19] | 3.39 |  | 
33 | O=CNc1cc(-c2ncnc(Nc3ccsc3)n2)ccn1 [Compound A36] | 1.9 |  | 
34 | C=C(C)CNc1cc(-c2ncnc(Nc3ccc(OC)nc3)n2)ccn1 [Compound A6] |  | 2.57[c] | 
35 | COCCN(C)c1cc(-c2ncnc(Nc3ccsc3)n2)ccn1 [Compound A26] | 1.45 |  | 

— patent US20110237594A1, “FUNGICIDE HERETOCYCLYL-TRIAZINYL-AMINO DERIVATIVES” (priority 2008, published 2011)
